# Source: PubChem BioAssay AID1745844 (Carcinogenic Potency Database (CPDB), 2022)
# Activity calls are given as the source filed them. No rule for the calls is given here.
# System: rodent lifetime carcinogenesis bioassay, tumor incidence TD50
# Experiment: chronic cancer bioassays in animals – CPDB, compiled studies (AID 1745844)
structure (smiles),measurement,setting,value
CN(C)CCOc1ccc(/C(=C(/CCCl)c2ccccc2)c2ccccc2)cc1,carcinogen call,"rat, strain Charles River CD (Sprague-Dawley), females, by gavage, site: liver, lesion: hepatocellular adenoma, dosed 52 weeks, study length 52 weeks",negative (inactive)
same,carcinogen call,"rat, strain Charles River CD (Sprague-Dawley), females, by gavage, site: liver, lesion: hepatocellular adenoma, dosed 52 weeks, study length 65 weeks",negative (inactive)
same,carcinogen call,"rat, strain Charles River CD (Sprague-Dawley), females, by gavage, site: liver, lesion: hepatocellular carcinoma, dosed 52 weeks, study length 52 weeks",negative (inactive)
same,carcinogen call,"rat, strain Charles River CD (Sprague-Dawley), females, by gavage, site: liver, lesion: hepatocellular carcinoma, dosed 52 weeks, study length 65 weeks",negative (inactive)
same,carcinogen call,"rat, strain Sprague-Dawley, females, by gavage, site: liver, lesion: one or several types, types not named, dosed 52 weeks, study length 52 weeks",negative (inactive)
same,carcinogen call,"rat, strain Sprague-Dawley, females, by gavage, site: liver, lesion: one or several types, types not named, dosed 52 weeks, study length 65 weeks",negative (inactive)
same,carcinogen call,"rat, strain Sprague-Dawley, females, by gavage, site: liver, lesion: several types, types named in the paper, dosed 52 weeks, study length 52 weeks",negative (inactive)
same,carcinogen call,"rat, strain Sprague-Dawley, females, by gavage, site: liver, lesion: several types, types named in the paper, dosed 52 weeks, study length 65 weeks",negative (inactive)
same,TD50,"rat, strain Sprague-Dawley, females, in feed, site: liver, lesion: hepatocellular adenoma, dosed 104 weeks, study length 104 weeks",344 mg/kg/day (inactive)
same,carcinogen call,"rat, strain Sprague-Dawley, females, in feed, site: liver, lesion: hepatocellular carcinoma, dosed 104 weeks, study length 104 weeks",negative (inactive)
same,carcinogen call,"rat, strain Sprague-Dawley, females, in feed, site: mammary gland, lesion: one or several types, types not named, dosed 104 weeks, study length 104 weeks",negative (inactive)
same,carcinogen call,"rat, strain Sprague-Dawley, females, in feed, site: pituitary gland, lesion: one or several types, types not named, dosed 104 weeks, study length 104 weeks",negative (inactive)
same,carcinogen call,"rat, strain Sprague-Dawley, males, in feed, site: liver, lesion: hepatocellular adenoma, dosed 104 weeks, study length 104 weeks",negative (inactive)
same,TD50,"rat, strain Sprague-Dawley, males, in feed, site: liver, lesion: hepatocellular carcinoma, dosed 104 weeks, study length 104 weeks",1040 mg/kg/day (inactive)
same,carcinogen call,"rat, strain Sprague-Dawley, males, in feed, site: mammary gland, lesion: one or several types, types not named, dosed 104 weeks, study length 104 weeks",negative (inactive)
same,carcinogen call,"rat, strain Sprague-Dawley, males, in feed, site: pituitary gland, lesion: one or several types, types not named, dosed 104 weeks, study length 104 weeks",negative (inactive)
same,carcinogen call,"rat, strain Sprague-Dawley, males, in feed, site: testis, lesion: one or several types, types not named, dosed 104 weeks, study length 104 weeks",negative (inactive)
NNC(=O)c1cccnc1,carcinogen call,"mouse, strain Swiss albino, females, in drinking water, site: liver, lesion: angioma, dosed 102 weeks, study length 102 weeks",negative (inactive)
same,carcinogen call,"mouse, strain Swiss albino, females, in drinking water, site: liver, lesion: angiosarcoma, dosed 102 weeks, study length 102 weeks",negative (inactive)
same,TD50,"mouse, strain Swiss albino, females, in drinking water, site: lung, lesion: adenocarcinoma, dosed 102 weeks, study length 102 weeks",511 mg/kg/day
same,TD50,"mouse, strain Swiss albino, females, in drinking water, site: lung, lesion: adenoma, dosed 102 weeks, study length 102 weeks",181 mg/kg/day
same,TD50,"mouse, strain Swiss albino, females, in drinking water, site: lung, lesion: several types, types named in the paper, dosed 102 weeks, study length 102 weeks",145 mg/kg/day
same,carcinogen call,"mouse, strain Swiss albino, males, in drinking water, site: liver, lesion: angioma, dosed 101 weeks, study length 101 weeks",negative (inactive)
same,carcinogen call,"mouse, strain Swiss albino, males, in drinking water, site: liver, lesion: angiosarcoma, dosed 101 weeks, study length 101 weeks",negative (inactive)
same,TD50,"mouse, strain Swiss albino, males, in drinking water, site: liver, lesion: hepatoma, dosed 101 weeks, study length 101 weeks",1410 mg/kg/day (inactive)
same,TD50,"mouse, strain Swiss albino, males, in drinking water, site: lung, lesion: adenoma, dosed 101 weeks, study length 101 weeks",428 mg/kg/day
same,TD50,"mouse, strain Swiss albino, males, in drinking water, site: lung, lesion: several types, types named in the paper, dosed 101 weeks, study length 101 weeks",528 mg/kg/day
